Measured values published in the supplement of paper PMC10627819.

How the values were obtained:
Assay in all cases: fitness (endpoint OD595 vs no drug) (fraction); higher = more growth
[1] = tested on: B. subtilis 168
Method in brief: (§1)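 Bacterial growth was followed in 384-well plates seeded at OD595 0.01, with 30 µl per well, or 55 µl for S. pneumoniae, in TSB, LB Lennox or CY at 37 °C. OD595 was read every 30 min for 14 h, and each reading had the first reading subtracted as background. Fitness is the background-corrected optical density at entry into stationary phase divided by the robust mean of the no-drug control wells. This ratio is capped at 1.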

[2] = tested on: S. pneumoniae D39V
Method in brief: as §1

[3] = tested on: S. aureus Newman; settings: one replicate
Method in brief: as §1

O=C(O)[C@H]1/C(=C/CO)O[C@@H]2CC(=O)N21 [Clavulanic acid] + C[C@@H]1O[C@@H]1P(=O)(O)O [Fosfomycin]
Settings | fitness
[1], first compound 1.5 µg/mL, partner 1.562 µg/mL | 0.691
[1], first compound 1.5 µg/mL, partner 3.124 µg/mL | 0.564
[1], first compound 1.5 µg/mL, partner 6.248 µg/mL | 0.478
[1], first compound 3 µg/mL, partner 1.562 µg/mL | 0.644
[1], first compound 3 µg/mL, partner 3.124 µg/mL | 0.529
[1], first compound 3 µg/mL, partner 6.248 µg/mL | 0.416
[1], first compound 6 µg/mL, partner 1.562 µg/mL | 0.559
[1], first compound 6 µg/mL, partner 3.124 µg/mL | 0.453
[1], first compound 6 µg/mL, partner 6.248 µg/mL | 0.301
[2], first compound 0.5 µg/mL, partner 1.25 µg/mL | 0.953
[2], first compound 0.5 µg/mL, partner 2.5 µg/mL | 0.933
[2], first compound 1 µg/mL, partner 1.25 µg/mL | 0.905
[2], first compound 1 µg/mL, partner 2.5 µg/mL | 0.872
[2], first compound 2 µg/mL, partner 1.25 µg/mL | 0.821
[2], first compound 2 µg/mL, partner 2.5 µg/mL | 0.802
[3], first compound 0.03125 µg/mL, partner 0.781 µg/mL | 0.96
[3], first compound 0.03125 µg/mL, partner 1.562 µg/mL | 0.679
[3], first compound 0.03125 µg/mL, partner 3.124 µg/mL | 0.396
[3], first compound 0.0625 µg/mL, partner 0.781 µg/mL | 0.885
[3], first compound 0.0625 µg/mL, partner 1.562 µg/mL | 0.626
[3], first compound 0.0625 µg/mL, partner 3.124 µg/mL | 0.382
[3], first compound 0.125 µg/mL, partner 0.781 µg/mL | 0.841
[3], first compound 0.125 µg/mL, partner 1.562 µg/mL | 0.598
[3], first compound 0.125 µg/mL, partner 3.124 µg/mL | 0.349

O=C(O)[C@H]1/C(=C/CO)O[C@@H]2CC(=O)N21 [Clavulanic acid] + C[n+]1ccc(-c2cc[n+](C)cc2)cc1 [Paraquat]
fitness
Settings | partner 1.25 µg/mL | partner 1.5 µg/mL | partner 2.5 µg/mL | partner 3 µg/mL | partner 5 µg/mL | partner 6 µg/mL
[1], first compound 1.5 µg/mL | 0.93 | – | 0.96 | – | 0.835 | –
[1], first compound 3 µg/mL | 0.87 | – | 0.812 | – | 0.77 | –
[1], first compound 6 µg/mL | 0.773 | – | 0.728 | – | 0.672 | –
[2], first compound 0.5 µg/mL | – | 0.99 | – | ≥ 1 | – | 0.991
[2], first compound 1 µg/mL | – | 0.973 | – | 0.962 | – | 0.941
[2], first compound 2 µg/mL | – | 0.875 | – | 0.896 | – | 0.863
[3], first compound 0.03125 µg/mL | 0.952 | – | 0.98 | – | 0.99 | –
[3], first compound 0.0625 µg/mL | 0.99 | – | 0.983 | – | ≥ 1 | –
[3], first compound 0.125 µg/mL | 0.843 | – | 0.943 | – | 0.89 | –

O=C(O)[C@H]1/C(=C/CO)O[C@@H]2CC(=O)N21 [Clavulanic acid] + Cc1cc(NS(=O)(=O)c2ccc(N)cc2)no1 [Sulfamethoxazol]
[1], partner 0.5 µg/mL, one replicate
Settings | fitness
first compound 1.5 µg/mL | 0.974
first compound 3 µg/mL | 0.903
first compound 6 µg/mL | 0.952

fitness
Settings | partner 1 µg/mL | partner 2 µg/mL | partner 4 µg/mL
[1], first compound 1.5 µg/mL | 0.853 | 0.883 | 0.93
[1], first compound 3 µg/mL | 0.816 | 0.839 | 0.943
[1], first compound 6 µg/mL | 0.704 | 0.733 | 0.798
[2], first compound 0.5 µg/mL | 0.985 | 0.982 | 0.949
[2], first compound 1 µg/mL | 0.914 | 0.93 | 0.856
[2], first compound 2 µg/mL | 0.836 | 0.904 | 0.786
[3], first compound 0.03125 µg/mL | 0.994 | 0.974 | 0.983
[3], first compound 0.0625 µg/mL | ≥ 1 | ≥ 1 | ≥ 1
[3], first compound 0.125 µg/mL | 0.951 | 0.929 | 0.929
